Laboratory results: US11945793B1, “9-(2-hydroxypyridin-3-yl)-10[3-(dimethylamino)propyl]-3,4,6,7,9,10-hexahydroacridine-1,8(2H,5H)-dione as an antimicrobial compound” (KING FAISAL UNIVERSITY, priority 2023, dated 2024)

Legend:
Assay type in all cases: cell-based
Conditions in all cases: after 10, 20, 40 and 60 minutes at all dilutions 1:100, 1:200, 1:400, 1:800
[1] = test system: Pseudomonas aeruginosa; test: Antimicrobial screening by agar dilution, Ps. aeruginosa
Protocol: (§1) The antibacterial properties of the synthesized compound 9-(2-hydroxypyridin-3-yl)-10-[3-(dimethylamino)propyl]-3,4,6,7,9,10-hexahydroacridine-1,8(2H,5H)-dione were studied by the method of agar dilution. Test solutions of each compound was prepared in concentration of 1% using dimethylformamide as a solvent then they are diluted in physiological solution to obtain the final experimental dilutions 1:100, 1:200, 1:400, 1:800. The effect of these substances are compared with furacillin in a controllable study. The testing microbes used were gram positive bacteria Staphylococcus aureus, gram negative bacteria Pseudomonas aeruginosa and Escherichia coli and Candida albicans fungus. The experiments used for this survey were meat-pentonlu agar (EPA) for cultivation of bacteria and Saburo environment for the fungus. Each experiment used 1 mL of test solution on each plate […]. Two drops of emulsified with microbes feel were added. All experimental samples were taken from the agar after 10, 20, 40, 60 minutes in the environment on the basis of Patrk planted. The bacteria were cultivated at a temperature of 37° C. for 1 day and the mushroom was kept in a thermostat for […] at a temperature of 28° C. Then results were checked.

[2] = test system: Candida albicans; test: Antimicrobial (antifungal) screening by agar dilution, Candida albicans
Protocol: as §1

[3] = test system: Escherichia coli; test: Antimicrobial screening by agar dilution, E. coli
Protocol: as §1

[4] = test system: Staphylococcus aureus; test: Antimicrobial screening by agar dilution, St. aureus
Protocol: as §1

Measured: inhibition activity (in words)

CN(C)CCCN1C2=C(C(=O)CCC2)C(c2cccnc2O)C2=C1CCCC2=O [9-(2-hydroxypyridin-3-yl)-10-[3-(dimethylamino)propyl]-3,4,6,7,9,10-hexahydroacridine-1,8(2H,5H)-dione]
highest inhibition activity: all assays above
